# Patent US20060084688A1, “Aromatic sulfone hydroxamic acid metalloprotease inhibitor” (priority 1997, published 2006)
# Structures can show the parent of a compound that is named as a salt. Where two headings read alike, the source gives them in different places.
# Legend:
# Assay in all cases: biochemical
# [1] = target: T1, recombinant human MMP-1 (Homo sapiens, UniProt P03956)
# T1 construct: made in house; host or cells: transfected HT-1080 cells
# T1 sequence (P03956 100-469): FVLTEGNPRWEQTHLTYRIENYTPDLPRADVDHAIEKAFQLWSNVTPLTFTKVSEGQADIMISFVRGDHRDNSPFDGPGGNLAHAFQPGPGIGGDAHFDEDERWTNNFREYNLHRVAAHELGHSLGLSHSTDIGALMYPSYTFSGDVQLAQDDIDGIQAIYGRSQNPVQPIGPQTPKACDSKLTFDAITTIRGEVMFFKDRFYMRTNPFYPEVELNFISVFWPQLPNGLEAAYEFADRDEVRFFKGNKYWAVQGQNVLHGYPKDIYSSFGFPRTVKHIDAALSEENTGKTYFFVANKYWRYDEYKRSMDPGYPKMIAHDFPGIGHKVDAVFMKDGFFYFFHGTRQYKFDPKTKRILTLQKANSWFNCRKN
# [2] = target: recombinant human MMP-13 (Homo sapiens, UniProt P45452)
# [3] = target: T2, recombinant human MMP-2 (Homo sapiens, UniProt P08253)
# T2 sequence (P08253 110-660): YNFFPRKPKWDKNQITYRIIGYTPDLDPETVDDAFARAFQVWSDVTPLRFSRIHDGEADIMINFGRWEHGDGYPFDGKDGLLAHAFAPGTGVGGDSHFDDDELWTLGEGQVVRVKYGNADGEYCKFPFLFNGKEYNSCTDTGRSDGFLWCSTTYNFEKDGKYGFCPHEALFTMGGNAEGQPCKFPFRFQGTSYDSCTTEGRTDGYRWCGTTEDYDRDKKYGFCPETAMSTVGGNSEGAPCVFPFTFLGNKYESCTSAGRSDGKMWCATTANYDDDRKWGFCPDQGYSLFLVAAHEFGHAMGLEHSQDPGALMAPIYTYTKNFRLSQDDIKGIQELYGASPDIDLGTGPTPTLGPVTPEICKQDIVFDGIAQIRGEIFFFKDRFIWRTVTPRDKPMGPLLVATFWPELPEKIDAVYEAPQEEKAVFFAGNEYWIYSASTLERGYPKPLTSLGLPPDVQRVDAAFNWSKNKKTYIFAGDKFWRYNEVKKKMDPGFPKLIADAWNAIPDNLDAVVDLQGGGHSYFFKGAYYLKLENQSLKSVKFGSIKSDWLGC
IC50 [1] [nM],"IC50 ([2]; room temperature, pH 7.5, 1 percent DMSO, 4 μM MCA peptide substrate) [nM]","IC50 ([3]; room temperature, pH 7.5, 1 percent DMSO, 4 μM MCA peptide substrate, no asterisk) [nM]",Structure (SMILES),IC50 ([1]; Inhibition Table B) [nM],IC50 ([2]; Inhibition Table B) [nM],IC50 ([3]; Inhibition Table B) [nM]
,,,O=C(C1CCN(c2ccc(S(=O)(=O)C3(C(=O)NO)CCOCC3)cc2)CC1)N1CCNCC1 [Example 151],> 10000,35,1500
,,,"C#CCN1CCC(C(=O)NO)(S(=O)(=O)c2ccc(Sc3ccc(Cl)cc3)cc2)CC1 [Example 44b, 4-[[4-(4-chlorophenyl)thio]phenyl]sulfonyl]-N-hydroxy-1-(propynyl)-4-piperidinecarboxamide, monohydrochloride]",> 10000,> 10000,8000
,,,CC1CCN(C(=O)C2CCN(c3ccc(S(=O)(=O)C4(C(=O)NO)CCOCC4)cc3)CC2)CC1 [Example 190],> 10000,10.6,220
,,,CN1CCN(C(=O)N2CCN(c3ccc(S(=O)(=O)C4(C(=O)NO)CCOCC4)cc3)CC2)CC1 [Example 210],> 10000,20,27
,,,CN1CCN(C(=O)C2CCN(c3ccc(S(=O)(=O)C4(C(=O)NO)CCOCC4)cc3)CC2)CC1 [Example 150],> 10000,14.5,1300
,,,O=C(NO)C1(S(=O)(=O)c2ccc(-c3cc4ccccc4o3)cc2)CCOCC1 [Example 229],> 10000,< 1,< 1
,,,N[C@H]1CCN(C(=O)C2CCCN(c3ccc(S(=O)(=O)C4(C(=O)NO)CCOCC4)cc3)C2)C1 (stereo partly drawn) [Example 168],> 10000,> 100,> 1000
,,,CCOC(=O)C1CCCN(C(=O)C2CCCN(c3ccc(S(=O)(=O)C4(C(=O)NO)CCOCC4)cc3)C2)C1 (stereo not drawn) [Example 160],> 10000,33.7,4700
> 10000,0.6,1.3,O=C(NO)C1(S(=O)(=O)c2ccc(SC3CCCCC3)cc2)CCN(C2CC2)CC1 [Example 21],,,
,,,O=C(C1CCN(c2ccc(S(=O)(=O)C3(C(=O)NO)CCOCC3)cc2)CC1)N1CCOCC1 [Example 131],> 10000,10,650
,,,CN1CCN(C(=O)C2CCCN(c3ccc(S(=O)(=O)C4(C(=O)NO)CCOCC4)cc3)C2)CC1 (stereo not drawn) [Example 157],> 10000,90,6000
,,,O=C(C1CCN(c2ccc(S(=O)(=O)C3(C(=O)NO)CCOCC3)cc2)CC1)N1CCCCCC1 [Example 165],> 10000,13.6,330
,,,O=C(N1CCNCC1)N1CCN(c2ccc(S(=O)(=O)C3(C(=O)NO)CCOCC3)cc2)CC1 [Example 209],> 10000,20,19
,,,O=C(O)C1CCCN(c2ccc(S(=O)(=O)C3(C(=O)NO)CCOCC3)cc2)C1 (stereo not drawn) [Example 138],> 10000,> 100,> 100
,,,O=C(C1CCCN(c2ccc(S(=O)(=O)C3(C(=O)NO)CCOCC3)cc2)C1)N1CCC(O)C1 (stereo not drawn) [Example 166],> 10000,> 100,> 1000
,,,O=C(O)CNC(=O)C1CCN(c2ccc(S(=O)(=O)C3(C(=O)NO)CCOCC3)cc2)CC1 [Example 135],> 10000,65,500
,,,CCNC(=O)C1CCN(c2ccc(S(=O)(=O)C3(C(=O)NO)CCOCC3)cc2)CC1 [Example 134],9000,4,29
,,,CN(C)[C@H]1CCN(C(=O)C2CCCN(c3ccc(S(=O)(=O)C4(C(=O)NO)CCOCC4)cc3)C2)C1 (stereo partly drawn) [Example 167],> 10000,> 100,> 1000
,,,Cc1ccc(-c2ccc(S(=O)(=O)C3(C(=O)NO)CCOCC3)cc2)cc1C [Example 223],1100,< 1,< 1
,,,O=C(C1CCCN(c2ccc(S(=O)(=O)C3(C(=O)NO)CCOCC3)cc2)C1)N1CCCCCC1 (stereo not drawn) [Example 162],> 10000,> 100,> 1000
,,,CCOC(=O)C1CCN(C(=O)N2CCN(c3ccc(S(=O)(=O)C4(C(=O)NO)CCOCC4)cc3)CC2)CC1 [Example 211],> 10000,24,33
,,,CNC(=O)C1CCN(c2ccc(S(=O)(=O)C3(C(=O)NO)CCOCC3)cc2)CC1 [Example 130],> 10000,45.9,57.7
,,,C=CCN(CC=C)C(=O)C1CCN(c2ccc(S(=O)(=O)C3(C(=O)NO)CCOCC3)cc2)CC1 [Example 182],> 10000,4,240

IC50 [1] [nM],"IC50 ([2]; room temperature, pH 7.5, 1 percent DMSO, 4 μM MCA peptide substrate) [nM]","IC50 ([3]; room temperature, pH 7.5, 1 percent DMSO, 4 μM MCA peptide substrate, no asterisk) [nM]",Structure (SMILES),IC50 ([1]; Inhibition Table B) [nM],IC50 ([2]; Inhibition Table B) [nM],IC50 ([3]; Inhibition Table B) [nM]
,,,O=C(C1CCCN(c2ccc(S(=O)(=O)C3(C(=O)NO)CCOCC3)cc2)C1)N1CCCC1 (stereo not drawn) [Example 172],> 10000,> 100,> 1000
,,,O=C(C1CCCCCC1)N1CCN(c2ccc(S(=O)(=O)C3(C(=O)NO)CCOCC3)cc2)CC1 [Example 202],> 10000,9.15,54
,,,O=C(Oc1ccc([N+](=O)[O-])cc1)N1CCN(c2ccc(S(=O)(=O)C3(C(=O)NO)CCOCC3)cc2)CC1 [Example 205],7300,2,12.7
,,,CC(C)[C@H](N)C(=O)N1CCN(c2ccc(S(=O)(=O)C3(C(=O)NO)CCOCC3)cc2)CC1 [Example 204],> 10000,27.1,25
,,,O=C(C1CCN(c2ccc(S(=O)(=O)C3(C(=O)NO)CCOCC3)cc2)CC1)N1CCCC2CCCCC21 (stereo not drawn) [Example 177],> 10000,21,400
,,,O=C(C1CCCN(c2ccc(S(=O)(=O)C3(C(=O)NO)CCOCC3)cc2)C1)N1CCNCC1 (stereo not drawn) [Example 158],> 10000,80,5000
,,,CN(C)C(=O)N1CCN(c2ccc(S(=O)(=O)C3(C(=O)NO)CCOCC3)cc2)CC1 [Example 208],> 10000,27,27
,,,O=C(C1CCN(c2ccc(S(=O)(=O)C3(C(=O)NO)CCOCC3)cc2)CC1)N1CCC(N2CCCC2)CC1 [Example 178],> 10000,> 100,540
,,,O=C(NO)C1(S(=O)(=O)c2ccc(-c3ccc(C(F)(F)F)cc3)cc2)CCOCC1 [Example 221],1600,< 1,< 1
,,,CC(C)NC(=O)C1CCN(c2ccc(S(=O)(=O)C3(C(=O)NO)CCOCC3)cc2)CC1 [Example 184],> 10000,7,94
,,,O=C(O)C1CCN(c2ccc(S(=O)(=O)C3(C(=O)NO)CCOCC3)cc2)CC1 [Example 129],> 10000,1000,> 100
,,,NCCCNC(=O)C1CCN(c2ccc(S(=O)(=O)C3(C(=O)NO)CCOCC3)cc2)CC1 [Example 133],> 10000,27,90
,,,O=C(NO)C1CCCN(c2ccc(S(=O)(=O)C3(C(=O)NO)CCOCC3)cc2)C1 (stereo not drawn) [Example 146],> 10000,32.6,650
,,,O=C(NC1CCc2ccccc21)C1CCN(c2ccc(S(=O)(=O)C3(C(=O)NO)CCOCC3)cc2)CC1 (stereo not drawn) [Example 188],> 10000,9.4,350
,,,Cc1cc(-c2ccc(S(=O)(=O)C3(C(=O)NO)CCOCC3)cc2)ccc1F [Example 222],100,< 1,< 1
,,,O=C(NCc1cccs1)C1CCN(c2ccc(S(=O)(=O)C3(C(=O)NO)CCOCC3)cc2)CC1 [Example 189],3700,8,94
,,,O=C(NO)C1(S(=O)(=O)c2ccc(-c3cccc([N+](=O)[O-])c3)cc2)CCOCC1 [Example 214],1100,< 1,< 1
,,,O=C(NCc1ccccn1)C1CCN(c2ccc(S(=O)(=O)C3(C(=O)NO)CCOCC3)cc2)CC1 [Example 196],> 10000,25,240
,,,O=C(C1CCN(c2ccc(S(=O)(=O)C3(C(=O)NO)CCOCC3)cc2)CC1)N1CCC(Cc2ccccc2)CC1 [Example 191],> 10000,4,350
,,,O=C(O)CNC(=O)C1CCCN(c2ccc(S(=O)(=O)C3(C(=O)NO)CCOCC3)cc2)C1 (stereo not drawn) [Example 144],> 10000,30.7,800
,,,CCN(CC)C(=O)C1CCN(c2ccc(S(=O)(=O)C3(C(=O)NO)CCOCC3)cc2)CC1 [Example 148],> 10000,31,2400
,,,O=C([C@@H]1CCCN1)N1CCN(c2ccc(S(=O)(=O)C3(C(=O)NO)CCOCC3)cc2)CC1 [Example 203],8500,30,31
